The results in this text go back to patent publication EP4768487A1, “FUSED LACTAM RING COMPOUND AND USE THEREOF” (Chengdu Zenitar Biomedical Technology Co., Ltd., priority 2023, dated 2025).

Data set [1] has as its system BRCA wild-type DLD-1 cells. Nature of the data set: Anti-proliferative activity against cells (CCK8): DLD-1. It counts as cell-based. Particulars: Homo sapiens, 72 h + 96 h culture. An outline of the steps: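 DLD-1 cells (1000/well) in RPMI-1640 with 10% FBS, treated 24 h after plating with PARPi at 0, 1 or 10 µM final. Cultured 72 h, medium exchanged with re-added PARPi, then a further 96 h; read-out by CCK8.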

Data set [2] can be described thus: Cerebrospinal fluid and plasma distribution in vivo. Particulars: rat, male rats, intravenous 5 mg/kg, n = 1. As for the experimental part:
Experimental procedures: The compound was weighed out, a small amount of DMSO was added, and then a sodium chloride solution for injection was added to prepare a 5 mg·mL^-1 compound solution for later administration. […] 10 µL of the plasma and 10 µL of the cerebrospinal fluid were each added to a centrifuge tube, and 40 µL of acetonitrile containing 20 ng·mL^-1 internal standard SAHA was added for precipitation. […] The supernatant was collected and transferred to a sample vial for later analysis. Range of standard curve: 1-1000 ng·mL^-1.

Data set [3] deals with T1, PARP1 (Homo sapiens, UniProt P09874).
T1 construct: purchased BPS 80501
T1 sequence (P09874 whole entry): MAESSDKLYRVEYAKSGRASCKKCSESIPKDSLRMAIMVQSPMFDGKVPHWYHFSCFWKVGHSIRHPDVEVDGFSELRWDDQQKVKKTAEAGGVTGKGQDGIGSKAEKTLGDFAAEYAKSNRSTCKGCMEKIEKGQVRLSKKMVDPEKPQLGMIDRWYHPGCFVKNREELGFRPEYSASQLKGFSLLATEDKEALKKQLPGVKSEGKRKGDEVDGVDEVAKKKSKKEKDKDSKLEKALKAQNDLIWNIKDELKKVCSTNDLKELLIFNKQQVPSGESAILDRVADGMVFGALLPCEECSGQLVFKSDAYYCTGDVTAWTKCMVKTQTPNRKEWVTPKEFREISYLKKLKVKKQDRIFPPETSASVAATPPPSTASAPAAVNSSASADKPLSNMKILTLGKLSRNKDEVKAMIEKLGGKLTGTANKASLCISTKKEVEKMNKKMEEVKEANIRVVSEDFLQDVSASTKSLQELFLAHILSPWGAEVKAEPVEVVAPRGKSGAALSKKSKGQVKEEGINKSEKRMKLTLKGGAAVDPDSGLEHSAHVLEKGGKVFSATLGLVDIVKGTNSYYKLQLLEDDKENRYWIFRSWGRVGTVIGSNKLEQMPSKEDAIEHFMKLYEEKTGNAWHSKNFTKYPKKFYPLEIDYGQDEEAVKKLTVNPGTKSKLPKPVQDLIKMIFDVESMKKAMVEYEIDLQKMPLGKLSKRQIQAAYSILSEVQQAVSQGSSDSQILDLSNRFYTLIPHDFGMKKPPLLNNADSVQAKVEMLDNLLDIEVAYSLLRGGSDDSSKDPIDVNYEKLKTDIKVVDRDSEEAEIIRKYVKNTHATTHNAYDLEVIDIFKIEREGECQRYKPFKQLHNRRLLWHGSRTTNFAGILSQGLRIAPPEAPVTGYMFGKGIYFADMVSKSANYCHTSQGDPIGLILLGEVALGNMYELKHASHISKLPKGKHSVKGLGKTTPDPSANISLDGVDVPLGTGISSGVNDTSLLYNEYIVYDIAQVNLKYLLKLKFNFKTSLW
Nature of the data set: PARP1 enzyme assay (histone-coated plate, chemiluminescence). It is filed as biochemical. Particulars: PARP1 0.02 nM, DNA 0.8 nM, NAD+ 3.5 µM; read-out: PARP-1 IC50.

For data set [4], the system named is BRCA-mutated MDA-MB-436 cells. Nature of the data set: Anti-proliferative activity against cells (CCK8): MDA-MB-436. It is filed as cell-based. Particulars: Homo sapiens, 72 h + 96 h culture.
Where [5] appears, read: cerebrospinal fluid, read-out: Cerebrospinal fluid.

The structures appear in SMILES notation. Like-named read-outs stand apart in the source and are kept apart here. Bounds are passed on as bounds.

In the case of `[2H]C([2H])([2H])NC(=O)c1ccc(N2CCN(C[C@H]3CCc4nc(C)c(=O)[nH]c4C3)CC2)c(F)n1` [Example 82, (S)-6-Fluoro-N-(methyl-d3)-5-(4-((2-methyl-3-oxo-3,4,5,6,7,8-hexahydroquinoxalin-6-yl)methyl)piperazin-1-yl)picolinamide], the IC50 (commonly the concentration at which inhibition is half-maximal) in data set [1] is > 1000 nM. Also, the concentration at 0.25 h in data set [2] (setting [5]) is 119 ng/g; in data set [2] (plasma, read-out: Plasma), 2740 ng/mL. Besides, the concentration at 2 h in data set [2] (setting [5]) came out at 0 ng/g; in data set [2] (plasma, read-out: Plasma), 77 ng/mL.

Consider `CNC(=O)c1ccc(N2CCN(CC3Cc4[nH]c(=O)c(Cl)cc4CO3)CC2)c(F)n1` (stereo not drawn) [Example 64, 5-(4-((3-Chloro-2-oxo-1,5,7,8-tetrahydro-2H-pyrano[4,3-b]pyridin-7-yl)methyl)piperazin-1-yl)-6-fluoro-N-methylpicolinamide], for which the IC50 in data set [1] was > 1000 nM; in data set [3] it was 50 to 500 nM. Moreover, the concentration at 0.25 h was found to be 102 ng/g in data set [2] (setting [5]) and 1620 ng/mL in data set [2] (plasma, read-out: Plasma). Further, the concentration at 2 h was found to be 0 ng/g in data set [2] (setting [5]) and 503 ng/mL in data set [2] (plasma, read-out: Plasma).

For the compound `CNC(=O)c1ccc(N2CCN(C[C@H]3CCc4nc(C)c(=O)[nH]c4C3)CC2)c(C)n1` [Example 47, (S)-N,6-Dimethyl-5-(4-((2-methyl-3-oxo-3,4,5,6,7,8-hexahydroquinoxalin-6-yl)methyl)piperazin-1-yl)picolinamide], the values for the concentration for half-maximal inhibition (IC50) in data set [1], in data set [3] and in data set [4] were > 1000 nM, ≤ 50 nM and 4 nM, respectively. The concentration at 0.25 h in data set [2] (setting [5]) is 64 ng/g; in data set [2] (plasma, read-out: Plasma), 1010 ng/mL. Besides, the concentration at 2 h amounted to 13 ng/g in data set [2] (setting [5]) and 43 ng/mL in data set [2] (plasma, read-out: Plasma).

For `CCc1cc2c([nH]c1=O)CC(CN1CCN(c3ccc(C(=O)NC)nc3C)CC1)OC2` (stereo not drawn) [Compound 38, 5-(4-((3-Ethyl-2-oxo-1,5,7,8-tetrahydro-2H-pyrano[4,3-b]pyridin-7-yl)methyl)piperazin-1-yl)-N,6-dimethylpicoli namide], the IC50 is > 1000 nM in data set [1], ≤ 50 nM in data set [3] and 3.5 nM in data set [4].

Turning to `CNC(=O)c1ccc(N2CCN(CC3COc4cc(C)c(=O)[nH]c4C3)CC2)c(F)n1` (stereo not drawn) [Example 101, 6-Fluoro-N-methyl-5-(4-((7-methyl-6-oxo-3,4,5,6-tetrahydro-2H-pyrano[3,2-b]pyridin-3-yl)methyl)piperazin-1-yl)picolinamide], the values for the IC50 in data set [1] and in data set [3] were > 1000 nM and ≤ 50 nM, respectively. Moreover, the concentration at 0.25 h amounted to 52 ng/g in data set [2] (setting [5]) and 2820 ng/mL in data set [2] (plasma, read-out: Plasma). The concentration at 2 h stood at 8 ng/g in data set [2] (setting [5]) and 592 ng/mL in data set [2] (plasma, read-out: Plasma).

Take `CNC(=O)c1ccc(N2CCN(C[C@H]3Cc4[nH]c(=O)c(C)cc4CO3)CC2)c(Cl)n1` [Example 95, (R)-6-chloro-N-methyl-5-(4-((3-methyl-2-oxo-1,5,7,8-tetrahydro-2H-pyrano[4,3-b]pyridin-7-yl)methyl)piperazin-1-yl)picolinamide]: the IC50 in data set [1] is > 1000 nM; in data set [3], ≤ 50 nM; in data set [4], 10.5 nM.

Turning to `CNC(=O)c1ccc(C2CCN(CC3Cc4[nH]c(=O)c(C)cc4CO3)CC2)c(F)n1` (stereo not drawn) [Example 59, 6-Fluoro-N-methyl-5-(1-((3-methyl-2-oxo-1,5,7,8-tetrahydro-2H-pyrano[4,3-b]pyridin-7-yl)methyl)piperidin-4-yl)picolinamide], the half-inhibitory concentration (IC50) in data set [1] is > 1000 nM; in data set [3], 50 to 500 nM; in data set [4] it was 300 nM.

`CNC(=O)c1ccc(C2=CCN(CC3Cc4[nH]c(=O)c(C(F)F)cc4CO3)CC2)c(F)n1` (stereo not drawn) [Example 52, 1'-((3-(Difluoromethyl)-2-oxo-1,5,7,8-tetrahydro-2H-pyrano[4,3-b]pyridin-7-yl)methyl)-2-flu oro-N-methyl-1',2',3',6'-tetrahydro-[3,4'-bipyridine]-6-carboxamide]: the IC50 in data set [1] is > 1000 nM; in data set [3], 50 to 500 nM; in data set [4] it was 200 nM.

Take `CCc1nc2c([nH]c1=O)C[C@@H](CN1CCC(c3ccc(C(=O)NC)nc3F)CC1)CC2` [Example 54, (S)-5-(1-((2-Ethyl-3-oxo-3,4,5,6,7,8-hexahydroquinoxalin-6-yl)methyl)piperidin-4-yl)-6-fluor o-N-methylpicolinamide]: the IC50 in data set [1] is > 1000 nM; in data set [3] it was 50 to 500 nM; in data set [4], 250 nM.

Turning to `CNC(=O)c1ccc(C2=CCN(CC3Cc4[nH]c(=O)c(C5CC5)cc4CO3)CC2)c(Cl)n1` (stereo not drawn) [Example 69, 2-Chloro-1'-((3-cyclopropyl-2-oxo-1,5,7,8-tetrahydro-2H-pyrano[4,3-b]pyridin-7-yl)methyl)-N-methyl-1',2',3',6'-tetrahydro-[3,4'-bipyridine]-6-carboxamide], the IC50 in data set [1] was > 1000 nM; in data set [3] it was 50 to 500 nM; in data set [4], 180 nM.

Regarding `CNC(=O)c1ccc(N2CCN(CC3Cc4[nH]c(=O)c(C)cc4CO3)CC2)c(F)n1` (stereo not drawn) [Example 39, 6-Fluoro-N-methyl-5-(4-((3-methyl-2-oxo-1,5,7,8-tetrahydro-2H-pyrano[4,3-b]pyridin-7-yl)methyl)piperazin-1-yl)picolinamide], the figures for the IC50 in data set [1] and in data set [3] were > 1000 nM and 50 to 500 nM, respectively. The concentration at 0.25 h in data set [2] (setting [5]) stood at 103 ng/g; in data set [2] (plasma, read-out: Plasma) it was 8200 ng/mL. Besides, the concentration at 2 h in data set [2] (setting [5]) was 26 ng/g; in data set [2] (plasma, read-out: Plasma) it was 4890 ng/mL.

For the compound `C=Cc1cc2c([nH]c1=O)CC(CN1CC=C(c3ccc(C(=O)NC)nc3F)CC1)OC2` (stereo not drawn) [Example 68, 2-Fluoro-N-methyl-1'-((2-oxo-3-vinyl-1,5,7,8-tetrahydro-2H-pyrano[4,3-b]pyridin-7-yl)methyl)-1',2',3',6'-tetrahydro-[3,4'-bipyridine]-6-carboxamide], the IC50 in data set [1] was > 1000 nM; in data set [3] it was ≤ 50 nM; in data set [4], 6 nM.

On to `CNC(=O)c1ccc(N2CCN(C[C@H]3CCc4nc(C5CC5)c(=O)[nH]c4C3)CC2)cn1` [Example 58, (S)-5-(4-((2-Cyclopropyl-3-oxo-3,4,5,6,7,8-hexahydroquinoxalin-6-yl)methyl)piperazin-1-yl) -N-methylpicolinamide], for which the half-inhibitory concentration (IC50) is > 1000 nM in data set [1], ≤ 50 nM in data set [3] and 140 nM in data set [4].

As to `CNC(=O)c1ccc(C2=CCN(CC3Cc4[nH]c(=O)c(C)cc4CO3)CC2)c(F)n1` (stereo not drawn) [Example 50, 2-Fluoro-N-methyl-1'-((3-methyl-2-oxo-1,5,7,8-tetrahydro-2H-pyrano[4,3-b]pyridin-7-yl)methyl)-1',2',3',6'-tetrahydro-[3,4'-bipyridine]-6-carboxamide], the results for the half-maximal inhibitory concentration (IC50) in data set [1], in data set [3] and in data set [4] were > 1000 nM, 50 to 500 nM and 350 nM, respectively.

In the case of `[2H]C([2H])([C@H]1CCc2nc(C)c(=O)[nH]c2C1)N1CCN(c2ccc(C(=O)NC3CC3)nc2F)CC1` [Example 88, (S)-N-Cyclopropyl-6-fluoro-5-(4-((2-methyl-3-oxo-3,4,5,6,7,8-hexahydroquinoxalin-6-yl)methyl-d2)piperazin-1-yl)picolinamide], the IC50 was > 1000 nM in data set [1], ≤ 50 nM in data set [3] and 6.5 nM in data set [4].
